Test results as given in US20100130476A1, “COMPOUNDS THAT INDUCE PANCREATIC BETA-CELL EXPANSION” (The Scripps Research Institute, priority 2008, published 2010).
“Also recorded” adds a separate entry of the source.

Experiments:
[1] = system: growth-arrested R7T1 β cells; experiment: R7T1 β-cell proliferation, CellTiter Glo assay (high-throughput screen and follow-up); assay type: cell-based, mouse; conditions: for expansion of the pancreatic β-cell population: high-throughput screen, CellTiter Glo at Day 8, screen concentration 1.25 μM
Method: (§1) R7T1 β-cells are expanded in growth medium (DMEM with 15% horse serum and 2.5% FBS) in the presence of 10 μg/ml doxycycline. (3TC-tet cells are expanded in growth medium (DMEM with 15% horse serum and 2.5% FBS) in the absence of 10 μg/ml doxycycline. Hamster HIT-T15 β-cells are grown in F12 medium with 15% horse serum and 2.5% FBS. MIN6 cells are cultured in DMEM with 15% FBS. HEK293 cells are grown according to instructions from ATCC (http://www.atcc.org/).
R7T1 β-cells are expanded in large quantities in growth medium in the presence of 10 μg/ml doxycycline and then are growth arrested by removal of doxycycline for one week. For the primary screen, growth-arrested cells are plated onto 384- or 1536-well plates in growth medium without doxycycline at a density of 4000 cells/well in 384-well plate or 1000 cells/well in 1536-well plate in an automated high-throughput screening platform (designated as Day 0). […] For data analysis, the median of a plate is calculated and the activity of each well is the signal/median of the plate. A signal in any well over 1.5 of the median is regarded as a primary hit. For the reconfirmation screen, growth-arrested R7T1 cells are plated onto 384-well plates and screened against all primary hits in quadruplicate. To eliminate tetracycline mimetics among all reconfirmed primary hits, βTC-tet cells are plated onto 384-well plates at a density of 2000 cells/well in growth medium in the presence of 10 μg/ml doxycycline, and 1.25 μM compound is added after overnight incubation and refreshed 4 days later. The effects on β-cell replication are then determined at Day 8 using the CellTiter Glo assay system. Any compound that increases the readings more than 1.5 fold is regarded as a hit.
SV40 T antigen (TAg) oncoprotein under the control of the Tet-On system was used to immortalize mouse β cells so that these engineered β cells proliferate when TAg is induced in the presence of tetracycline (Tet), but undergo growth arrest upon withdrawal of Tet (see, Efrat S, et al., Proc. Natl. Acad. Sci. USA 92:3576-3580 (1995); Fleischer N, et al, Diabetes 47:1419-1425 (1998); and Milo-Landesman D, et al., Cell Transplant. 10:645-650 (2001)). Although not a true mimic of in vivo quiescent β cells, this system should allow us to identify small molecules that are able to induce reentry into cell cycle and proliferation of growth-arrested cells. Indeed, these engineered cells express high levels of β-cell signature markers, including insulin 1, insulin 2, and Pdx1, and are able to secrete insulin and restore and maintain euglycemia in STZ-treated diabetic mice when induced to growth arrest and transplanted (see, Efrat S, et al., supra; and Milo-Landesman D, et al., supra). A total of ≈850,000 compounds were screened with an automated high-throughput screening platform for their ability to induce the proliferation of growth-arrested β cells in either a 384- or 1,536-well plate format. In the primary screen, proliferation was assayed by using a luminescent assay measuring intracellular ATP content, which is directly proportional to viable cell number (see, Materials and Methods). To rule out any possible Tet mimetics that induce the proliferation of β cells through the induction of SV40 TAg expression, the Tet-Off immortalized β-cell line βTC-Tet was used for a counterscreen.

rat primary β cells = experiment: Primary β-cell proliferation assay, rat (C-peptide/Ki-67 double staining); assay type: cell-based; conditions: for increase in replicating primary rat β cells (Ki-67/C-peptide): 72 h, compared with DMSO; for increase in rat C-peptide/Ki-67 double positive β-cells: 72 hours (3 days), concentration not given
Method: (§2) Islets are isolated by the standard Liberase digestion method from the pancreata of adult Sprague-Dawley rats (200-250 g) (Liberase III; Roche Applied Science) and cultured in RPMI medium with 10% FBS. Briefly, 6 ml of ice-cold Liberase solution (Roche Applied Science) is injected into the pancreas via the common bile duct. After dissection, the pancreas is incubated for 35 minutes at 37° C. and then further dissociated by repeated pipetting using a 10-ml pipette. Islets are purified by Histopaque-1.077 (Sigma) density gradient centrifugation and are manually picked using a stereomicroscope. […] Human islets are obtained through the Juvenile Diabetes Research Foundation Islet Distribution Program by Islet Cell Resource Center in Minnesota, USA. The purity and viability of human islets are reported to be 30-70% and 50-70%, respectively. Human islets are cultured in CMRL medium containing 10% FBS.
(§3) Islets or single suspension cells are fixed with 4% formalin solution (Sigma) and stained by standard immuno-fluorescence techniques for C-peptide (anti-human C-peptide antibody from Raybiotech, Inc., and anti-rat C-peptide antibody from Linco, Inc.) and Ki-67 (anti-Ki-67 antibody from Abcam), a marker of proliferating cells. Nuclear DNA is stained with DAPI (Molecular Probes). At least 30,000 C-peptide positive cells are counted in each experiment, performed in triplicate. The images are taken on a Nikon Eclipse TE300 microscope with 200× magnification. Proliferating C-peptide/Ki-67 double positive β-cells are counted manually.

[2] = system: Super (8×) TOPFlash reporter; experiment: Super (8×) TOPFlash Wnt reporter in HEK293 cells; assay type: cell-based
Method: (§4) (A) Chemical structures of 5-thiophene pyrimidines. […] Relative luminescence unit (RLU) was measured by CellTiter-Glo assay after 7-day incubation of growth-arrested R7T1 β cells with 1a, which was added at day 0 and refreshed at day 4; experiments were performed in quadruplicate. All data in this paper are presented as mean±SD, unless otherwise specified. (C) Dose-dependent effects of 1a on the activation of Super (8×) TOPFlash reporter. HEK293 cells transfected with Super (8×) TOPFlash reporter were treated with 1a at the indicated concentrations 24 h after transfection. Luciferase activity was measured 48 h after compound treatment. (D and E) The proliferative effect of 1a on rat primary β cells. (D) After incubation for 72 h with 2 μM 1a, replicating β cells were identified by double-immunofluorescence staining by using anti-C-peptide antibody to mark β cells (green) and antibody against Ki-67, a proliferation marker (red). Nuclear DNA was stained with DAPI (blue). (Scale bar, 10 μm.) (E) The percentage of Ki-67-positive cells of all C-peptide-positive cells, which corresponds to the fraction of replicating β cells. The number of proliferating primary β cells increased after incubation for 72 h in the presence of 2 μM 1a compared with DMSO control: 1a at 2 μM increases the replicating β cells ≈2-fold. (F) Compound 1a stimulates the translocation of β-catenin into the nucleus. Nuclear β-catenin accumulation (green arrows) was increased in 10 μM 1a-treated HEK293 cells; in DMSO-treated control cells, β-catenin staining is weak and appears to concentrate at the cell surface. […] CellTiter-Glo activity was measured 7 days after compound treatment.

[3] = system: Wnt reporter whose β-catenin/TCF binding sites are mutated; experiment: Mutated Wnt reporter; assay type: cell-based; conditions: data not shown
GSK3-β = GSK3-β (Homo sapiens, UniProt P49841); experiment: GSK3-β inhibition; assay type: biochemical; conditions: preliminary investigation
Sequence of GSK3-β (P49841 whole entry, species assumed): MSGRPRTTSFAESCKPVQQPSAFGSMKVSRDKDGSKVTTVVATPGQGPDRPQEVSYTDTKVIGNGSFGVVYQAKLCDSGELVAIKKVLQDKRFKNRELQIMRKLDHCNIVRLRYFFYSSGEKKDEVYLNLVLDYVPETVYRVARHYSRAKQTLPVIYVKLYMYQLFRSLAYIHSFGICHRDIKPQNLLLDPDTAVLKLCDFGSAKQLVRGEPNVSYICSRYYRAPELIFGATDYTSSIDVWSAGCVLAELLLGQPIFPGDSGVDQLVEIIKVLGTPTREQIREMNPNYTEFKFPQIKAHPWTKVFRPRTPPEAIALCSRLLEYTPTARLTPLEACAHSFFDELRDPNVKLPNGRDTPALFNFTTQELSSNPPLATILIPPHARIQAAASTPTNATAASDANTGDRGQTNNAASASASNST

65 kinases = experiment: Kinase profiling; assay type: biochemical; conditions: 5 μM; 65 kinases profiled
β-catenin = experiment: Nuclear β-catenin translocation in HEK293 cells; assay type: cell-based; conditions: 10 μM, versus DMSO, listed as 1a
Method: as §4, with “≈2-fold.” for “≈2-fold. (F) Compound 1a stimulates the translocation of β-catenin into the nucleus. Nuclear β-catenin accumulation (green arrows) was increased in 10 μM 1a-treated HEK293 cells; in DMSO-treated control cells, β-catenin staining is weak and appears to concentrate at the cell surface.”

HIT-T15 β cells = experiment: HIT-T15 β-cell proliferation (BrdU incorporation assay); assay type: cell-based, Hamster
Method: as §1

MIN6 cells [4] = experiment: MIN6 β-cell proliferation (BrdU incorporation assay); assay type: cell-based
Method: as §1

human primary β cells = experiment: Primary β-cell proliferation assay, human (C-peptide/Ki-67 double staining); assay type: cell-based
Method: as §2, §3

MIN6 cells [5] = experiment: Calcium influx assay (fluo-3, FLIPR); assay type: cell-based; conditions: MIN6 β cells
Method: Calcium Influx Assay.Measurement of intracellular Ca^2+ ([Ca^2+]i) was performed by using a fluorescence laser-imaging plate reader (FLIPR; Molecular Devices). Briefly, MIN6 cells cultured in 384-well plates were incubated for 1 h with 4 μM fluo-3/AM (Molecular Probes) and 0.04% pluronic acid in physiological Locke's buffer (154 mM NaCl, 5.6 mM KCl, 1.0 mM MgCl2, 2.3 mM CaCl2, 8.6 mM Hepes, 5.6 mM glucose, and 0.1 mM glycine [pH 7.4]). After incubation, MIN6 cells were washed with Locke's buffer by using an automated cell washer to remove extracellular dye. MIN6 cells were treated with compounds at the indicated concentrations. These cells were excited at 488 nm and Ca^2+-bound fluo-3 emission was recorded at 500-560 nm.

[6] = system: growth-arrested R7T1 β cells; experiment: Microarray analysis of gene expression; assay type: cell-based, mouse
Method: RNA extraction from R7T1 β-cells treated with compounds at the indicated time points is performed using RNeasy kits (Qiagen). The integrity and concentration of RNA is determined by microfluidic analysis on an Experion instrument (BioRad). Standard Affymetrix single amplification is performed using 5 μg total RNA. Standard Affymetrix protocols are used to process Affymetrix MOE430—2 microarrays (Affymetrix). All CEL file images are processed as a single group using gcRMA.

Ras = Ras activation analysis (GST-Raf1 RBD pull-down); assay type: cell-based, mouse; conditions: growth-arrested R7T1 β cells; for Ras-GTP level / Ras signaling (in words): 0.5 μM
Method: Ras-GTP levels are detected using the Active Ras Pull-Down and Detection Kit, following the manufacturer's instructions (Pierce). Briefly, growth-arrested R7T1 β-cells are treated with 0.5 μM of a compound of the invention for an indicated time. Cells are then washed twice with ice-cold phosphate-buffered saline (PBS) and lysed in Lysis/Binding/Wash Buffer containing protease inhibitor cocktail [Roche]. Lysates (500 μg) are clarified by centrifugation and supernatants are incubated with 80 μg of GST-Raf1-RBD fusion protein precoupled to glutathione-Sepharose beads. After incubation for 1 hour at 4° C., beads are washed three times in Lysis/Binding/Wash Buffer, resuspended in Laemmli buffer and boiled. Samples are analyzed by SDS-PAGE (4-20%) followed by transfer to nitrocellulose membrane and then are probed with anti-Ras antibody. Blots are developed using the enhanced ECL system.

## CN1CCN(C(=O)c2ccc(Nc3nccc(-c4cccs4)n3)cc2Cl)CC1 [Example 1, (2-chloro-4-(4-(thiophen-2-yl)pyrimidin-2-ylamino)phenyl)(4-methylpiperazin-1-yl)methanone]
[1]; Mus musculus, 168 h, CellTiter-Glo after 7-day incubation, read-out: EC50 of replication of growth-arrested R7T1 β cells
  EC50: ~1.1 µM
[1]
  expansion of the pancreatic β-cell population: 2.5 fold
Rat primary β cells; 2 μM
  increase in replicating primary rat β cells (Ki-67/C-peptide): ≈ 2 fold
Rat primary β cells
  increase in rat C-peptide/Ki-67 double positive β-cells: 2 fold
[2]; 10 μM
  activation of the Wnt reporter compared with DMSO: 15 fold
[2]; Homo sapiens, HEK293 cells, luciferase 48 h after compound treatment, read-out: EC50 of induction of Super (8×) TOPFlash reporter
  EC50: ~1.25 µM
[3]
  activity on mutated Wnt reporter: no activity
GSK3-β
  IC50: 0.064 µM
65 kinases
  kinases profiled that were inhibited by >75%: 7 of 65
β-catenin
  nuclear β-catenin accumulation: Increased nuclear β-catenin accumulation
HIT-T15 β cells
  proliferation of HIT-T15 β cells (in words): promote the proliferation
MIN6 cells [4]
  proliferation of MIN6 β cells (in words): promote the proliferation

## COC(=O)C1=C(C)NC(C)=C([N+](=O)[O-])[C@H]1c1ccccc1C(F)(F)F [Example 2a, (S)-methyl 2,6-dimethyl-5-nitro-4-(2-(trifluoromethyl)phenyl)-1,4-dihydropyridine-3-carboxylate]
[1]
  duration of R7T1 proliferation in the presence of the compound: up to 3 weeks
  time to stop of proliferation after removal of the compound: ≤ 1 week
[1]; CellTiter-Glo, 7 days
  effect on growth-arrested R7T1 β cells (in words): β-cell proliferation
Rat primary β cells; 1 μM
  increase in replicating primary rat β cells (Ki-67/C-peptide): ≈ 2.5 fold
Rat primary β cells
  increase in rat C-peptide/Ki-67 double positive β-cells: 2.5 fold
Human primary β cells; 1 μM, 72 h, compared with DMSO
  increase in proliferating human primary β cells: ≈ 1.5 fold
Human primary β cells; 72 hours, concentration not given
  increase in human C-peptide/Ki-67 double positive β-cells: 1.5 fold
Human primary β cells; human islets, 3 days, 2a 1 μM, Ex-4 5 nM where combined
  number of proliferating human primary β cells (in words): increase the number of proliferating human β cells
HIT-T15 β cells
  proliferation of HIT-T15 β cells (in words): increased proliferation
MIN6 cells [4]
  proliferation of MIN6 β cells (in words): increased proliferation
MIN6 cells [5]; fluo-3, FLIPR
  increase in transient intracellular calcium levels: 10 fold
MIN6 cells [5]; fluo-3, FLIPR up to 5 min
  calcium influx (in words): stimulated
[6]; 0.5 μM
  expression of IRS2: 1.7 fold
[6]; 0.5 μM, 24 h
  expression of Ccnd2 (cyclin D2): approximately 1.7 fold
[6]; 2-6 h after treatment
  expression of RasGEFs (RasGRF1, RasGEF1b) (in words): transcriptionally up-regulated; also recorded: activated
[6]; 2a 1 μM, Ex-4 5 nM where combined, 2 h to 24 h
  expression of Ccnd2 (in words): increased; also recorded: up-regulated
[6]; pretreatment versus posttreatment, data not shown
  expression of β-cell signature markers insulin 1, insulin 2, Pdx1: unchanged
[6]; within 30 min, 0.5 μM or 1 μM 2a, Ex-4 5 nM where combined
  expression of immediate-early genes (Fos, Jun, Egr, Ier families): large increase; also recorded: highly induced
Ras
  time of peak Ras-GTP level: 10 min
  Ras-GTP level / Ras signaling (in words): elevated; also recorded: Activation
Ras; listed as (S)-methyl 2,6-dimethyl-5-nitro-4-(2-(trifluoromethyl)phenyl)-1,4-dihydropyridin
  Ras-GTP level / Ras signaling (in words): activates the Ras pathway

## COc1ccc(CCNc2nc(N3CCCC3CO)nc3ccccc23)cc1 (stereo not drawn) [Example 9, (1-(4-(4-methoxyphenethylamino)quinazolin-2-yl)pyrrolidin-2-yl)methanol]
[1]
  expansion of the pancreatic β-cell population: 3 fold

## CC1=C(CC(=O)O)c2cc(F)ccc2/C1=C\c1ccc([S+](C)[O-])cc1 (stereo not drawn) [Sulindac]
[1]; 60 μM Sulindac with 10 μM 1a, CellTiter-Glo after 7 days
  effect on 1a-stimulated β-cell proliferation: abolished
[2]
  effect on 1a-stimulated Wnt activation: abolished
